test system: S. pneumoniae ATCC 49619; assay: Minimal inhibitory concentration (MIC) by broth microdilution (CLSI M7-A7); type: cell-based, Streptococcus pneumoniae; conditions: Streptococcus pneumoniae, ATCC49619; cation-adjusted Mueller Hinton Broth supplemented with 3% (v/v) lysed horse blood; microdilution method
Method: Minimal inhibitory concentrations (MICs; mg/l) were determined in cation-adjusted MuellerHinton Broth (supplemented with 3% (v/v) lysed horse blood for testing Streptococcus pneumoniae) by a microdilution method following the description given in “Methods for Dilution Antimicrobial Susceptibility Tests for Bacteria that Grow Aerobically”, Approved standard, 7th ed., a Clinical and Laboratory Standards Institute (CLSI) Document M7-A7, Wayne, Pa., USA, 2006.

MIC, 1 µg/mL:
CCNC(=O)Nc1cc2cccc(CNC(=O)Cc3ccccc3)c2cn1 [Example 12, N-[3-(3-ethyl-ureido)-isoquinolin-8-ylmethyl]-2-phenyl-acetamide]
CCNC(=O)Nc1cc2cccc(CNC(=O)c3cn[nH]n3)c2cn1 [Example 20, 2H-[1,2,3]triazole-4-carboxylic acid [3-(3-ethyl-ureido)-isoquinolin-8-ylmethyl]-amide]
CCNC(=O)Nc1cc2c(-c3ccncc3)ccc(CNC(=O)c3cccnc3)c2cn1 [Example 23, N-[3-(3-ethyl-ureido)-5-pyridin-4-yl-isoquinolin-8-ylmethyl]-nicotinamide]

MIC, 8 µg/mL:
CCNC(=O)Nc1cc2cccc(CNC(=O)CNC(C)=O)c2cn1 [Example 8, 2-acetylamino-N-[3-(3-ethyl-ureido)-isoquinolin-8-ylmethyl]-acetamide]
C#CCCC(=O)NCc1cccc2cc(NC(=O)NCC)ncc12 [Example 17, pent-4-ynoic acid [3-(3-ethyl-ureido)-isoquinolin-8-ylmethyl]-amide]
CCNC(=O)Nc1cc2cccc(CNC(=O)CN(C)C)c2cn1 [Example 19, 2-dimethylamino-N-[3-(3-ethyl-ureido)-isoquinolin-8-ylmethyl]-acetamide]
CCNC(=O)Nc1cc2cccc(CNC(=O)CCC(N)=O)c2cn1 [Example 21, N-[3-(3-ethyl-ureido)-isoquinolin-8-ylmethyl]-succinamide]
CCNC(=O)Nc1cc2cccc(CNC(=O)OCc3cncn3C)c2cn1.Cl [Example 38, [3-(3-ethyl-ureido)-isoquinolin-8-ylmethyl]-carbamic acid 3-methyl-3H-imidazol-4-ylmethyl ester hydrochloride]

MIC, 2 µg/mL:
C#CCC(=O)NCc1cccc2cc(NC(=O)NCC)ncc12 [Example 1, but-3-ynoic acid [3-(3-ethyl-ureido)-isoquinolin-8-ylmethyl]-amide]
CCNC(=O)Nc1cc2cccc(CNC(=O)c3ccncc3)c2cn1 [Example 2, N-[3-(3-ethyl-ureido)-isoquinolin-8-ylmethyl]-isonicotinamide]
CCNC(=O)Nc1cc2cccc(CNC(=O)c3ccccc3)c2cn1 [Example 4, N-[3-(3-ethyl-ureido)-isoquinolin-8-ylmethyl]-benzamide]
CCNC(=O)Nc1cc2cccc(CNC(=O)CC3CC3)c2cn1 [Example 7, 2-cyclopropyl-N-[3-(3-ethyl-ureido)-isoquinolin-8-ylmethyl]-acetamide]
C#CC(=O)NCc1cccc2cc(NC(=O)NCC)ncc12 [Example 9, propynoic acid [3-(3-ethyl-ureido)-isoquinolin-8-ylmethyl]-amide]
CCNC(=O)Nc1cc2cccc(CNC(=O)c3ccccn3)c2cn1 [Example 11, pyridine-2-carboxylic acid [3-(3-ethyl-ureido)-isoquinolin-8-ylmethyl]-amide]
CCNC(=O)Nc1cc2cccc(CNC(=O)C3CC3)c2cn1 [Example 13, cyclopropanecarboxylic acid [3-(3-ethyl-ureido)-isoquinolin-8-ylmethyl]-amide]
CCNC(=O)Nc1cc2cccc(CNC(=O)OCc3ccncc3)c2cn1.Cl [Example 25, [3-(3-ethyl-ureido)-isoquinolin-8-ylmethyl]-carbamic acid pyridin-4-ylmethyl ester hydrochloride]
C#CCOC(=O)NCc1cccc2cc(NC(=O)NCC)ncc12.Cl [Example 31, [3-(3-ethyl-ureido)-isoquinolin-8-ylmethyl]-carbamic acid prop-2-ynyl ester hydrochloride]
CCNC(=O)Nc1cc2cccc(CNC(=O)OCc3cn[nH]c3)c2cn1.Cl [Example 39, [3-(3-ethyl-ureido)-isoquinolin-8-ylmethyl]-carbamic acid 1H-pyrazol-4-ylmethyl ester hydrochloride]

MIC, 4 µg/mL:
CCNC(=O)Nc1cc2c(-c3ccncc3)ccc(CNC(=O)OCC(O)CO)c2cn1.Cl (racemic) [Example 103, (±)-[3-(3-ethyl-ureido)-5-pyridin-4-yl-isoquinolin-8-ylmethyl]-carbamic acid 2,3-dihydroxy-propyl ester hydrochloride]
CCNC(=O)Nc1cc2cccc(CNC(C)=O)c2cn1 [Example 3, N-[3-(3-ethyl-ureido)-isoquinolin-8-ylmethyl]-acetamide]
CCNC(=O)Nc1cc2cccc(CNC(=O)CC#N)c2cn1 [Example 5, 2-cyano-N-[3-(3-ethyl-ureido)-isoquinolin-8-ylmethyl]-acetamide]
CCNC(=O)Nc1cc2cccc(CNC(=O)C3CCCCC3)c2cn1 [Example 6, cyclohexanecarboxylic acid [3-(3-ethyl-ureido)-isoquinolin-8-ylmethyl]-amide]
CCNC(=O)Nc1cc2cccc(CNC(=O)c3cccnc3)c2cn1 [Example 10, N-[3-(3-ethyl-ureido)-isoquinolin-8-ylmethyl]-nicotinamide]
CCNC(=O)Nc1cc2cccc(CNC(=O)C(C)(C)C)c2cn1 [Example 14, N-[3-(3-ethyl-ureido)-isoquinolin-8-ylmethyl]-2,2-dimethyl-propionamide]
CCNC(=O)Nc1cc2cccc(CNC(=O)COC)c2cn1 [Example 15, N-[3-(3-ethyl-ureido)-isoquinolin-8-ylmethyl]-2-methoxy-acetamide]
CCNC(=O)Nc1cc2cccc(CNC(=O)c3ncc[nH]3)c2cn1 [Example 16, 1H-imidazole-2-carboxylic acid [3-(3-ethyl-ureido)-isoquinolin-8-ylmethyl]-amide]
CCNC(=O)Nc1cc2cccc(CNC(=O)C(C)C)c2cn1 [Example 18, N-[3-(3-ethyl-ureido)-isoquinolin-8-ylmethyl]-isobutyramide]
CCNC(=O)Nc1cc2cccc(CNC(=O)c3cncn3C)c2cn1 [Example 22, 3-methyl-3H-imidazole-4-carboxylic acid [3-(3-ethyl-ureido)-isoquinolin-8-ylmethyl]-amide]
CCNC(=O)Nc1cc2cccc(CNC(=O)OCC)c2cn1.Cl [Example 24, [3-(3-ethyl-ureido)-isoquinolin-8-ylmethyl]-carbamic acid ethyl ester hydrochloride]
CCNC(=O)Nc1cc2cccc(CNC(=O)OCc3cncnc3)c2cn1.Cl [Example 26, [3-(3-ethyl-ureido)-isoquinolin-8-ylmethyl]-carbamic acid pyrimidin-5-ylmethyl ester hydrochloride]
CCNC(=O)Nc1cc2cccc(CNC(=O)OCCF)c2cn1.Cl [Example 27, [3-(3-ethyl-ureido)-isoquinolin-8-ylmethyl]-carbamic acid 2-fluoro-ethyl ester hydrochloride]
CCNC(=O)Nc1cc2cccc(CNC(=O)OCC3CC3)c2cn1.Cl [Example 28, [3-(3-ethyl-ureido)-isoquinolin-8-ylmethyl]-carbamic acid cyclopropylmethyl ester hydrochloride]
CCNC(=O)Nc1cc2cccc(CNC(=O)OCc3ccncn3)c2cn1.Cl [Example 29, [3-(3-ethyl-ureido)-isoquinolin-8-ylmethyl]-carbamic acid pyrimidin-4-ylmethyl ester hydrochloride]
CCNC(=O)Nc1cc2cccc(CNC(=O)OC(C)C)c2cn1.Cl [Example 30, [3-(3-ethyl-ureido)-isoquinolin-8-ylmethyl]-carbamic acid isopropyl ester hydrochloride]
CCNC(=O)Nc1cc2cccc(CNC(=O)OCCC#N)c2cn1.Cl [Example 32, [3-(3-ethyl-ureido)-isoquinolin-8-ylmethyl]-carbamic acid 2-cyano-ethyl ester hydrochloride]
CCNC(=O)Nc1cc2cccc(CNC(=O)OCc3cccnc3)c2cn1.Cl [Example 33, [3-(3-ethyl-ureido)-isoquinolin-8-ylmethyl]-carbamic acid pyridin-3-ylmethyl ester hydrochloride]
CCNC(=O)Nc1cc2cccc(CNC(=O)OCc3ccccn3)c2cn1.Cl [Example 34, [3-(3-ethyl-ureido)-isoquinolin-8-ylmethyl]-carbamic acid pyridin-2-ylmethyl ester hydrochloride]
CCNC(=O)Nc1cc2cccc(CNC(=O)OCc3ccn(C)n3)c2cn1.Cl [Example 35, [3-(3-ethyl-ureido)-isoquinolin-8-ylmethyl]-carbamic acid (1-methyl-1H-pyrazol-3-yl)methyl ester hydrochloride]
CCNC(=O)Nc1cc2cccc(CNC(=O)OCc3ccccc3)c2cn1.Cl [Example 36, [3-(3-ethyl-ureido)-isoquinolin-8-ylmethyl]-carbamic acid benzyl ester hydrochloride]
CCNC(=O)Nc1cc2cccc(CNC(=O)OCCOC)c2cn1.Cl [Example 37, [3-(3-ethyl-ureido)-isoquinolin-8-ylmethyl]-carbamic acid 2-methoxy-ethyl ester hydrochloride]
C#CCCOC(=O)NCc1cccc2cc(NC(=O)NCC)ncc12.Cl [Example 40, [3-(3-ethyl-ureido)-isoquinolin-8-ylmethyl]-carbamic acid but-3-ynyl ester hydrochloride]

MIC, 0.25 µg/mL:
C#CC(C)OC(=O)NCc1ccc(-c2ccncc2)c2cc(NC(=O)NCC)ncc12 (racemic) [Example 108, (±)-[3-(3-ethyl-ureido)-5-pyridin-4-yl-isoquinolin-8-ylmethyl]-carbamic acid 1-methyl-prop-2-ynyl ester]
C#CCOC(=O)NCc1ccc(-c2ccncc2)c2cc(NC(=O)NCC)ncc12 [Example 41, [3-(3-ethyl-ureido)-5-pyridin-4-yl-isoquinolin-8-ylmethyl]-carbamic acid prop-2-ynyl ester]
